Measured values from patent US9278925B2, “Substituted 3-(biphenyl-3-yl)-4-hydroxy-8-methoxy-1-azaspiro[4.5]dec-3-en-2-one” (BAYER INTELLECTUAL PROPERTY GMBH, priority 2011, dated 2016).
Several values for one entry are separate records, joined by “and”; a condition that tells them apart may be missing. Identical values can stand only once. Like-named read-outs stand apart in the source and are kept apart here.

Key:
[1] = Pharmacokinetic parameters in the rat (i.v. and intragastric); type: in vivo; conditions: for F: oral bioavailability; for t½: terminal
Procedure: Determination of the Pharmacokinetic Parameters of a Test Substance in the Rat and in the Dog For this, the test substances were applied in dissolved form both for intravenous, and for intragastric application, wherein compatible solubilizers such as PEG400 and/or ethanol were used in a compatible amount. […] Administration was as a bolus injection in the male rat and as an infusion in the female dog (15 min) At various time points after the bolus injection, and before and after the 15-minute infusion, blood samples of about 100-150 μl were removed via a catheter either from the jugular vein (rat) or from the saphenous vein (dog). Lithium-heparin was added as anticoagulant to the blood samples and they were stored in a refrigerator until required for further processing. After centrifugation of the samples for 15 min at 3000 rpm, an aliquot of 100 μl was taken from the supernatant (plasma) and was precipitated by adding 400 μl of cold ACN or methanol (absolute). The precipitated samples were frozen-out at […] overnight, then centrifuged again at 3000 rpm for 15 min, before 150 μl of the clear supernatant were removed to determine the concentration. The analysis was effected by means of an Agilent 1200 HPLC system with connected LCMS/MS detection. Calculation of the PK parameters (using PK calculation software, e.g. WinNonLin®): CLplasma: total plasma clearance of the test substance (in 1*kg/h); CLblood: total blood clearance of the test substance (in 1*kg/h), where (CLblood=CLplasma*Cp/Cb); Vss: apparent steady-state distribution volume (in 1/kg); t½: half-life within a specified interval (here: terminal t½, in h); AUCnorm: area under the plasma concentration time profile from time point zero extrapolated to infinity divided by the dose normalized for body weight (in kg*l/h); AUC(0-tn)norm: integrated area under the plasma concentration time profile from time point zero until the last time point at which a plasma concentration was measurable, divided by the dose normalized for body weight (in kg*l/h); Cmax: maximum concentration of the test substance in the plasma (in μg/l); Cmax,norm: maximum concentration of the test substance in the plasma divided by the dose normalized for body weight (in kg/l); Cb/Cp: ratio of the blood to plasma concentration distribution. […] At various time points after administration, blood samples of about 100-150 μl were removed via a catheter either from the jugular vein (rat) or from the saphenous vein (dog). Lithium-heparin was added as anticoagulant to the blood samples and they were stored in a refrigerator until required for further processing. After centrifugation of the samples for 15 min at 3000 rpm, an aliquot of 100 μl was taken from the supernatant (plasma) and was precipitated by adding 400 μl of cold ACN or methanol (absolute). The precipitated samples were frozen-out at −20° C. overnight, then centrifuged at 3000 rpm for 15 min, before 150 μl of the clear supernatant were removed to determine the concentration. The analysis was effected by means of an Agilent 1200 HPLC system with connected LCMS/MS detection. […]

human PC-3 cells = conditions: for T/C: final tumour weight
Procedure: Xenograft models in immunosuppressed mice were used to determine the antitumour activity in living organisms.
Use was made primarily of a prostate carcinoma model with hormone-independent human PC-3 cells in male nude mice (NMRI-nude (nu/nu) mice, Taconic M&B A/S). To this end, 3 million tumour cells (suspended in medium+Matrigel 1:1, final 0.1 ml) were injected subcutaneously into the side of each animal. When the tumours extended to an area of 20-30 mm^2, the mice were randomized into therapy groups and therapy was initiated. […] At this point in time, the experiment was terminated in all groups and the prepared tumours were weighed.
The T/C value was calculated as primary success parameter using the effect on the final tumour weight: mean tumour weight in the treatment group divided by mean of the tumour weight in the vehicle group.
(§1) Administration route: oral
Vehicle: PEG400/ethanol/Solutol HS 15 (70/5/25, v/v/v)
Administration volume: 10 ml/kg
Number of mice: see Table 8

human ACC2 = human ACC2 (Homo sapiens (Human), UniProt O00763); assay: Human ACC2 enzyme assay (ADP-Glo); conditions: read-out: ACC 2 IC50, individual measurement (measurement no./preparation no. in table)
[2] = Maximum tolerated dose (MTD) in female nude mice; type: in vivo, mouse; conditions: for Deaths: 21 days, 1 administration per day; for MTD at 21 days: female, NMRI-nude (nu/nu), mouse, in vivo, 21-day treatment, administration once per day, oral
Procedure: To this end, initially the maximum tolerable dose (MTD) was determined using the following protocol:
The MTD was defined as the highest dose which could be administered without any animal dying during the treatment phase, and without any body weight loss of more than 10% compared to the initial weight.
as §1
• (Solutol HS15: polyoxyethylene ester of 12-hydroxystearic acid) Administration volume: 10 ml/kg: Protocol: see Table 7
The treatment phase was followed by an observation phase of 21 days.

[3] = Prediction of human pharmacokinetic parameters and human therapeutic dosage (single species scaling from rat); conditions: for pred. CL (human): predicted (fu-corrected) from rat PK
Procedure: The human pharmacokinetic (PK) parameters (Table 9) were predicted based on the in vivo PK parameters obtained for rats (single species scaling), taking into account the interspecies differences in the free fraction (fu) in the plasma. The effective AUC (area under curve) was determined based on the measured plasma concentration time profile for in vivo efficacy in the PC3 tumour model of the mouse (nu/nu mouse). The therapeutic human dosage was determined using the predicted human clearance (CL), assuming 100% bioavailability (F=1) and using the effective AUC in the animal model according to the formula below: […]

[4] = Effective AUC from plasma concentration time profile in the PC3 tumour model; type: in vivo, mouse
Procedure: The human pharmacokinetic (PK) parameters (Table 9) were predicted based on the in vivo PK parameters obtained for rats (single species scaling), taking into account the interspecies differences in the free fraction (fu) in the plasma. The effective AUC (area under curve) was determined based on the measured plasma concentration time profile for in vivo efficacy in the PC3 tumour model of the mouse (nu/nu mouse).

human ACC1 [5] = assay: Human ACC1 enzyme assay (ADP-Glo); type: biochemical
Procedure: (§2) Typical concentrations were in the range of 1.75 μl.

human ACC1 [6] = target: human ACC1 (Homo sapiens, UniProt Q13085); assay: Human ACC1 enzyme assay (ADP-Glo); type: biochemical; conditions: individual measurement (measurement no./preparation no. in table), read-out: ACC 1 IC50
Procedure: as §2

[7] = 40 mg/kg oral, 20 days, 1 administration per day
[8] = 80 mg/kg oral, 14 days, 2 administrations per day
[9] = 80 mg/kg oral, 20 days, 1 administration per day
[10] = 100 mg/kg oral, 14 days, 1 administration per day
[11] = 100 mg/kg oral, 14 days, 2 administrations per day

human ACC2, sequence (O00763 27-2458 limits assumed): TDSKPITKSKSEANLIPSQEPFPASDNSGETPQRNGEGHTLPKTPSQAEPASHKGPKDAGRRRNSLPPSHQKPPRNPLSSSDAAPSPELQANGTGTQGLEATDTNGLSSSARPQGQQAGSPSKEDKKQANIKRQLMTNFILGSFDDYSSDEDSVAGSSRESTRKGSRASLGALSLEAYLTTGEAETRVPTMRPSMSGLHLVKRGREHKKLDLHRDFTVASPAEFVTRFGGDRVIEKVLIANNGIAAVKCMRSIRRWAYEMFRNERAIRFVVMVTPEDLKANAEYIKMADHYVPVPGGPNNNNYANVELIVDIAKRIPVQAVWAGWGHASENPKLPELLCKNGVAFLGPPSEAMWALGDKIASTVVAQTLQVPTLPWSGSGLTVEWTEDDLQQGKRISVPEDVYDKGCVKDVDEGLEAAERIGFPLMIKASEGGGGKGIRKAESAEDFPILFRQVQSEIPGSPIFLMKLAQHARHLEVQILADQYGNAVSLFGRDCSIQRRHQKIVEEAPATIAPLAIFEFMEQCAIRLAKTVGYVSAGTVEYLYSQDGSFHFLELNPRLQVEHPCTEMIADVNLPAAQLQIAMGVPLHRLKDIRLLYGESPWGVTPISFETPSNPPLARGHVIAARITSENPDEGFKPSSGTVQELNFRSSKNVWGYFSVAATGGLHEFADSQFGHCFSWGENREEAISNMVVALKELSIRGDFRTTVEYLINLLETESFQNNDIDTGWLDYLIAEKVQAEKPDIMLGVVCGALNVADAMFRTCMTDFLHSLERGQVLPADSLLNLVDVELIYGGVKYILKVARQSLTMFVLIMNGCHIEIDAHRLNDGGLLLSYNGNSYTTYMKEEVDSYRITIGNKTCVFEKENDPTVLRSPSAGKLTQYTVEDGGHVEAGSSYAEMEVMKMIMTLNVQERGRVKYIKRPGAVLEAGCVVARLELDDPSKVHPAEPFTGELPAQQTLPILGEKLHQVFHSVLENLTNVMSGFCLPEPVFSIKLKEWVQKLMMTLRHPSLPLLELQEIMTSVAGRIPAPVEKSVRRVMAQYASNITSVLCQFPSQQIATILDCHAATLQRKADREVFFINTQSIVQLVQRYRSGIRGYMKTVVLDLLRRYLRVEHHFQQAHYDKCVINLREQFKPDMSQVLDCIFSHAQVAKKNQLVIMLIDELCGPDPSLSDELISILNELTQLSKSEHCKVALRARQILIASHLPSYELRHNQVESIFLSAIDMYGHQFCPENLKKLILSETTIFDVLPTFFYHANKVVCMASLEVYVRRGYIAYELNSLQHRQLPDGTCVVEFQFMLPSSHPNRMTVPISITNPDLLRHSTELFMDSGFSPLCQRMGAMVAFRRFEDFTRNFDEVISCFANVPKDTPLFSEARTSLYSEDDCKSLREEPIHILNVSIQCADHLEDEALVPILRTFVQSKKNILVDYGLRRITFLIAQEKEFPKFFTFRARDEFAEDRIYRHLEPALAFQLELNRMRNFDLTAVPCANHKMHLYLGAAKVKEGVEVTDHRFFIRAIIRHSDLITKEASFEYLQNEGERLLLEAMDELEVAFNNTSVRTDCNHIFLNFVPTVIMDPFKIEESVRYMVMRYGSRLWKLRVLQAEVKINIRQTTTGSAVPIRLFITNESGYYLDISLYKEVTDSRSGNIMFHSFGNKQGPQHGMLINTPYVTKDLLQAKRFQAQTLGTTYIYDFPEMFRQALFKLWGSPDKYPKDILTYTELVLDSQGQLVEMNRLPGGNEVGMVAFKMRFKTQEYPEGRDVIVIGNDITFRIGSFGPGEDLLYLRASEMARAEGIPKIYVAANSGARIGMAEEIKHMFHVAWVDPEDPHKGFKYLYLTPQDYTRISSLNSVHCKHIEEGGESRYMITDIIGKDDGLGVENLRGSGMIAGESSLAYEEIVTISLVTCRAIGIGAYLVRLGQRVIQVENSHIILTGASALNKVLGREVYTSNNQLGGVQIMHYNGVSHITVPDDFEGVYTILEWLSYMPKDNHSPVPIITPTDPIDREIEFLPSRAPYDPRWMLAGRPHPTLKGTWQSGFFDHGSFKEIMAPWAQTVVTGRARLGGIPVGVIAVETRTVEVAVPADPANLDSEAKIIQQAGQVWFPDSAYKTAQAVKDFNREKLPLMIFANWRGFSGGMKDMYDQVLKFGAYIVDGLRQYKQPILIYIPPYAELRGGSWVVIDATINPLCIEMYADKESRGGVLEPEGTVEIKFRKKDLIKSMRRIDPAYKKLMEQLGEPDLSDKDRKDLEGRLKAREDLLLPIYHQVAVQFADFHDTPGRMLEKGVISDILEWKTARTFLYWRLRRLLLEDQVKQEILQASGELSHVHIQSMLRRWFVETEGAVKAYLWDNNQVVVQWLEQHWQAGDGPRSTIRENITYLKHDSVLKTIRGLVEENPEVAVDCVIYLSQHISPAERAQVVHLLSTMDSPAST

CO[C@]1(C)CC[C@]2(CC1)NC(=O)C(c1cc(-c3ccc(Cl)c(F)c3)ccc1C)=C2O [Example V.2-a, (5r,8r)-3-(4′-Chloro-3′-fluoro-4-methylbiphenyl-3-yl)-4-hydroxy-8-methoxy-8-methyl-1-azaspiro[4.5]dec-3-en-2-one]
CLplasma [1]: 0.217 mL/min/kg
Vss [1]: 0.51 L/kg
F [1]: 71%
t½ [1]: 33 h
Deaths (human PC-3 cells; [7]): 0 of 9
T/C (human PC-3 cells; [7]): 0.71
Deaths (human PC-3 cells; [8]): 1 of 9
T/C (human PC-3 cells; [8]): 0.27
Deaths (human PC-3 cells; [9]): 0 of 9
T/C (human PC-3 cells; [9]): 0.44
tolerability (good: body weight change <=minus 10% and 100% survival) (human PC-3 cells; 80 mg/kg, administration 2 times per day): no good tolerability
tolerability (good: body weight change <=minus 10% and 100% survival) (human PC-3 cells; 80 mg/kg, administration once per day): good tolerability
IC50 (human ACC2): 9.56 µM and 9.2 µM and 4.99 µM and 5.8 µM and 8.63 µM and 7.81 µM and 8.81 µM and 3.99 µM and 2.14 µM and 2.9 µM
IC50 (human ACC2; listed as V.4-a): 9.56 µM and 9.2 µM and 4.99 µM and 5.8 µM and 8.63 µM and 7.81 µM and 8.81 µM and 3.99 µM and 2.14 µM and 2.9 µM
Deaths ([2]; 10 mg/kg oral): 0 of 4
Deaths ([2]; 20 mg/kg oral): 0 of 4
Deaths ([2]; 40 mg/kg oral): 0 of 4
Deaths ([2]; 80 mg/kg oral): 0 of 4
MTD at 21 days [2]: > 80 mg/kg
calc. AUC (human) ([3]; from mouse dosage 80 mg/kg 1 × per day): 3737 µg·h/mL
calc. AUC (human) ([3]; from mouse dosage 80 mg/kg 2 × per day): 4702 µg·h/mL
pred. CL (human) [3]: 0.1 mL/min/kg
ther. AUC (mouse) ([4]; dosage (mouse) 80 mg/kg 1 × per day): 544 µg·h/mL
ther. AUC (mouse) ([4]; dosage (mouse) 80 mg/kg 2 × per day): 672 µg·h/mL
Selectivity ACC1 vs. ACC2 (mean of the individual measurements ± standard deviation) (human ACC1 [5]): 57.2 ± 6.4
Selectivity ACC1 vs. ACC2 (mean of the individual measurements ± standard deviation) (human ACC1 [5]; listed as V.4-a): 57.2 ± 26.4
IC50 (human ACC1 [6]; listed as V.4-a): 83 nM and 249 nM and 63 nM and 67 nM and 154 nM and 184 nM (2×) and 90 nM and 87 nM and 75 nM
IC50 (human ACC1 [6]): 83 nM and 249 nM and 63 nM and 67 nM and 154 nM and 184 nM (2×) and 90 nM and 87 nM and 75 nM

CO[C@]1(C)CC[C@]2(CC1)NC(=O)C(c1cc(-c3ccc(Cl)cc3)ccc1C)=C2O [Example V.1-a, (5r,8r)-3-(4′-Chloro-4-methylbiphenyl-3-yl)-4-hydroxy-8-methoxy-8-methyl-1-azaspiro[4.5]dec-3-en-2-one]
CLplasma [1]: 0.15 mL/min/kg
Vss [1]: 0.3 L/kg
F [1]: 83%
t½ [1]: 28 h
Deaths (human PC-3 cells; [10]): 0 of 9
T/C (human PC-3 cells; [10]): 0.30
Deaths (human PC-3 cells; [11]): 2 of 9
T/C (human PC-3 cells; [11]): 0.15
tolerability (good: body weight change <=minus 10% and 100% survival) (human PC-3 cells; 100 mg/kg, administration 2 times per day): no good tolerability
tolerability (good: body weight change <=minus 10% and 100% survival) (human PC-3 cells; 100 mg/kg, administration once per day): good tolerability
IC50 (human ACC2): 3.13 µM and 3.93 µM and 4.54 µM and 2.53 µM and 2.33 µM and 2.51 µM and 3.36 µM and 2.75 µM and 2.03 µM and 2.86 µM and 3.32 µM and 5.14 µM and 5.2 µM
IC50 (human ACC2; listed as V.3-a): 3.13 µM and 3.93 µM and 4.54 µM and 2.53 µM and 2.33 µM and 2.51 µM and 3.36 µM and 2.75 µM and 2.03 µM and 2.86 µM and 3.32 µM and 5.14 µM and 5.2 µM
Deaths ([2]; 25 mg/kg oral): 0 of 4
Deaths ([2]; 50 mg/kg oral): 0 of 4
Deaths ([2]; 100 mg/kg oral): 0 of 4
MTD at 21 days [2]: > 100 mg/kg
calc. AUC (human) ([3]; from mouse dosage 100 mg/kg 1 × per day): 6494 µg·h/mL
calc. AUC (human) ([3]; from mouse dosage 100 mg/kg 2 × per day): 9867 µg·h/mL
pred. CL (human) [3]: 0.05 mL/min/kg
ther. AUC (mouse) ([4]; dosage (mouse) 100 mg/kg 1 × per day): 984 µg·h/mL
ther. AUC (mouse) ([4]; dosage (mouse) 100 mg/kg 2 × per day): 1495 µg·h/mL
Selectivity ACC1 vs. ACC2 (mean of the individual measurements ± standard deviation) (human ACC1 [5]): 28.2 ± 8.5
IC50 (human ACC1 [6]): 0.108 µM and 0.182 µM and 0.132 µM and 0.097 µM and 0.055 µM and 0.104 µM and 0.213 µM and 0.137 µM and 0.151 µM and 0.081 µM and 0.091 µM and 0.147 µM and 0.158 µM
